Common to all, as to test: biochemical
Assay [1] deals with T1, panel of 374 wild-type kinases (Homo sapiens, UniProt Q9UM73).
T1 construct: purchased Reaction Biology Corporation
The settings on record: read-out: % Enzyme Activity (relative to DMSO controls), ALK.

Assay [2] concerns the target T2, panel of 374 wild-type kinases (Homo sapiens, UniProt P36888).
T2 construct: purchased Reaction Biology Corporation
T2 sequence (P36888 27-993): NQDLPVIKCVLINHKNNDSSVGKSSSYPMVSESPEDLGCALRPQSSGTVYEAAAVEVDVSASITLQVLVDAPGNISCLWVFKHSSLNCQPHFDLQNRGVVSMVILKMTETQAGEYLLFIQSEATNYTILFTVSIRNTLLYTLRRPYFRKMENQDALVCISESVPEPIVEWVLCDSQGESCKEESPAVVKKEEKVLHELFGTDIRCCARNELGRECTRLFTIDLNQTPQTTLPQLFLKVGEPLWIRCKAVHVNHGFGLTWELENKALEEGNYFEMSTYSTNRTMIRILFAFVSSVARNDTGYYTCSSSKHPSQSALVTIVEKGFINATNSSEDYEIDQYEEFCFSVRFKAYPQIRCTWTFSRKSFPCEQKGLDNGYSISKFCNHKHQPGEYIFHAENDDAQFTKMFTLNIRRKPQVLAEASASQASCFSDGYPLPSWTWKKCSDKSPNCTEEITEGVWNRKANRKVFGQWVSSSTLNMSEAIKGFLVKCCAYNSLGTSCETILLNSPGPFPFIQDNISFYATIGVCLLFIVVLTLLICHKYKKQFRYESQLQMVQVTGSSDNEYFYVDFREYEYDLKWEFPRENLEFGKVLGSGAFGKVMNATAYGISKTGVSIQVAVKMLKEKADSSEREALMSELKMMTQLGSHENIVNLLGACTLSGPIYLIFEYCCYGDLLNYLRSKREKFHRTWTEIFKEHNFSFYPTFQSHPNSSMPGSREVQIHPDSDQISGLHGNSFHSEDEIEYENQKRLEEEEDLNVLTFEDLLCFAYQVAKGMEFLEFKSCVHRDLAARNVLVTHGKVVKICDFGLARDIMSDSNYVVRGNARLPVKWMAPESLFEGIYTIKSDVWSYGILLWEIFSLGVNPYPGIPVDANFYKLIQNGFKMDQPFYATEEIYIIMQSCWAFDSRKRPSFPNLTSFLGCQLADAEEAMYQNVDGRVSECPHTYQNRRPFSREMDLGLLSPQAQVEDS
The settings on record: read-out: % Enzyme Activity (relative to DMSO controls), FLT3.

Assay [3] concerns the target T3, panel of 374 wild-type kinases (Homo sapiens, UniProt Q96RG2).
T3 construct: purchased Reaction Biology Corporation
Conditions: read-out: % Enzyme Activity (relative to DMSO controls), kinase PASK.

In assay [4] the target is T4, panel of 374 wild-type kinases (Homo sapiens, UniProt P45984).
T4 construct: purchased Reaction Biology Corporation
Conditions: JNK2, read-out: % Enzyme Activity (relative to DMSO controls).

The target in assay [5] is T5, panel of 374 wild-type kinases (Homo sapiens, UniProt P24941).
T5 construct: purchased Reaction Biology Corporation

For assay [6], the target named is T6, panel of 374 wild-type kinases (Homo sapiens, UniProt P09769).
T6 construct: purchased Reaction Biology Corporation
The settings on record: read-out: % Enzyme Activity (relative to DMSO controls), FGR.

Assay [7] has as its target T7, panel of 374 wild-type kinases (Homo sapiens, UniProt Q96S53).
T7 construct: purchased Reaction Biology Corporation
Conditions: read-out: % Enzyme Activity (relative to DMSO controls), kinase TESK2.

Assay [8] addresses T8, panel of 374 wild-type kinases (Homo sapiens, UniProt Q9UQB9).
T8 construct: purchased Reaction Biology Corporation
T8 sequence (Q9UQB9 1-309): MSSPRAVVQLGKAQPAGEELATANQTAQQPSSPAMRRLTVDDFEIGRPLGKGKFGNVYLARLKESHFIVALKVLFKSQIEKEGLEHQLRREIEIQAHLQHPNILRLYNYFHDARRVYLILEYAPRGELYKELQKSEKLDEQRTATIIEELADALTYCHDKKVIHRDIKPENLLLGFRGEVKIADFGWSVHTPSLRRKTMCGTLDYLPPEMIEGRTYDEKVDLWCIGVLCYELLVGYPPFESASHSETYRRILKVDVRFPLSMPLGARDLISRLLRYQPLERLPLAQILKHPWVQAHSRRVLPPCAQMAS
The settings on record: read-out: % Enzyme Activity (relative to DMSO controls), Aurora C.

Setting [9] is: read-out: % Enzyme Activity (relative to DMSO controls), CDK2/Cyclin A1.
The mark [10] stands for this setting: read-out: % Enzyme Activity (relative to DMSO controls), CDK2/cyclin A.
[11] abbreviates: read-out: % Enzyme Activity (relative to DMSO controls), CDK2/cyclin E2.
[12] abbreviates: read-out: % Enzyme Activity (relative to DMSO controls), CDK2/cyclin E.
The mark [13] stands for this setting: read-out: % Enzyme Activity (relative to DMSO controls), CDK2/cyclin O.

Read-outs that look alike come from different tables or passages of the source.

T3 sequence (Q96RG2 whole entry): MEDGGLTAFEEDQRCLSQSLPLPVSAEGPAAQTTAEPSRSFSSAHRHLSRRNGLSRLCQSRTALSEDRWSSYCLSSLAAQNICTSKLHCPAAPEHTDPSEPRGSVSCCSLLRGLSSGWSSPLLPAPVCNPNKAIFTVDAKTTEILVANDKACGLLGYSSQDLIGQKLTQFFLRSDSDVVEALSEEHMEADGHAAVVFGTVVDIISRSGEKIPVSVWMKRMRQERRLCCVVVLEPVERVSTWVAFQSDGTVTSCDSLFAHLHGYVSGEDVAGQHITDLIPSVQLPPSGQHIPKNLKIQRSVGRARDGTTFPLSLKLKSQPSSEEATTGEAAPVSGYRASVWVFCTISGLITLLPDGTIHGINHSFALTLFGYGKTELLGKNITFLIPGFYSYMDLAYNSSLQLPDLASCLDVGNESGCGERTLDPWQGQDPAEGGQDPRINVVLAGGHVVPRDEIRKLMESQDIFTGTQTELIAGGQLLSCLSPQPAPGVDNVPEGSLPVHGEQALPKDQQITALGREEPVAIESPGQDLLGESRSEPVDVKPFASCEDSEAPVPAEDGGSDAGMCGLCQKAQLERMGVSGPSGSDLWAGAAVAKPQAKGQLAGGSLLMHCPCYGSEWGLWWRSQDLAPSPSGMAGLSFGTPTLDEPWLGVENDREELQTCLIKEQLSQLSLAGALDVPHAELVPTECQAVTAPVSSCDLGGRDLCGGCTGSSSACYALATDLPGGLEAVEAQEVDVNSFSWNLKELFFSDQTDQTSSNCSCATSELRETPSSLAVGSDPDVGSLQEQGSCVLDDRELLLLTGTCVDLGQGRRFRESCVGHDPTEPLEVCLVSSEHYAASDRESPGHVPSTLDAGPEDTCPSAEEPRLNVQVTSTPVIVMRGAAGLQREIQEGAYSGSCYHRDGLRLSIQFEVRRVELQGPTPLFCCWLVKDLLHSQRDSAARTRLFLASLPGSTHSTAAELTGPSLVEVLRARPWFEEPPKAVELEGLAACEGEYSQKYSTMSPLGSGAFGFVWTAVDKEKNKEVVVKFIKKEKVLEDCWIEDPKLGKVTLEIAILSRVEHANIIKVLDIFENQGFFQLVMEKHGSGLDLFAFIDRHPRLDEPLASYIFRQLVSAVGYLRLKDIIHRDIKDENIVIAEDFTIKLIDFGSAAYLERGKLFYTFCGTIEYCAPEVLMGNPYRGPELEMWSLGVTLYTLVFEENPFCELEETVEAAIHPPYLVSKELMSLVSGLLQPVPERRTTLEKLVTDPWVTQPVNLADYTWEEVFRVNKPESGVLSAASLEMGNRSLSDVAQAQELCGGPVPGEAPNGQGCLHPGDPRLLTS
T6 sequence (P09769 whole entry): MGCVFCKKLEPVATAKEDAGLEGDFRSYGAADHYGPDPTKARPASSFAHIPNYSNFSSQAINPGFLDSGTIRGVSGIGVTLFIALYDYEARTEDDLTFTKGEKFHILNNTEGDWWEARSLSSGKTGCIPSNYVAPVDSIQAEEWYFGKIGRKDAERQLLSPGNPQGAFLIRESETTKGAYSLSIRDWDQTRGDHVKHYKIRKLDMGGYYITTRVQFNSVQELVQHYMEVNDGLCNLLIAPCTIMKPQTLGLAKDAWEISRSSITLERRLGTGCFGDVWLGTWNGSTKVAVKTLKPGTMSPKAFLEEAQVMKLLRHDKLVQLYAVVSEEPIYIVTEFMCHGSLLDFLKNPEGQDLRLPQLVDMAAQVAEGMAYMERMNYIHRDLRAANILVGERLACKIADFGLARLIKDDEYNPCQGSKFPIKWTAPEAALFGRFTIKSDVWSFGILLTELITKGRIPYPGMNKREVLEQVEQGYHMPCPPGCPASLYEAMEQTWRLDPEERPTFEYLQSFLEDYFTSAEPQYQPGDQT
T7 sequence (Q96S53 whole entry): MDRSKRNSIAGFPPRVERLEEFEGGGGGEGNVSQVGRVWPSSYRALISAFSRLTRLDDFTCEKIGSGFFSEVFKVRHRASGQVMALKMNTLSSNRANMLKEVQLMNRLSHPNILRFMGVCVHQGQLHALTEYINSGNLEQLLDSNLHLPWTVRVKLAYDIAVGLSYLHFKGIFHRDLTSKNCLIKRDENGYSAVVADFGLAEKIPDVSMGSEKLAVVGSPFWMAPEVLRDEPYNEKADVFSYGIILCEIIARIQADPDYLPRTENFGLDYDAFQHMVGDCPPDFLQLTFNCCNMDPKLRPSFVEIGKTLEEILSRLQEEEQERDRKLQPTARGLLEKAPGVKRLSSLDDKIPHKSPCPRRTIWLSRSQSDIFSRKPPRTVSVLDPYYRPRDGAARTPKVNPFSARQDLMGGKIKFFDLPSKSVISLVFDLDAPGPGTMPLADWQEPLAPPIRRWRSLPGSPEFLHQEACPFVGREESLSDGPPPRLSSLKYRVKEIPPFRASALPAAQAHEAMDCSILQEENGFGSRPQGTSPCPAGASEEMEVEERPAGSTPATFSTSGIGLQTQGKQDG
T1 sequence (Q9UM73 19-1620): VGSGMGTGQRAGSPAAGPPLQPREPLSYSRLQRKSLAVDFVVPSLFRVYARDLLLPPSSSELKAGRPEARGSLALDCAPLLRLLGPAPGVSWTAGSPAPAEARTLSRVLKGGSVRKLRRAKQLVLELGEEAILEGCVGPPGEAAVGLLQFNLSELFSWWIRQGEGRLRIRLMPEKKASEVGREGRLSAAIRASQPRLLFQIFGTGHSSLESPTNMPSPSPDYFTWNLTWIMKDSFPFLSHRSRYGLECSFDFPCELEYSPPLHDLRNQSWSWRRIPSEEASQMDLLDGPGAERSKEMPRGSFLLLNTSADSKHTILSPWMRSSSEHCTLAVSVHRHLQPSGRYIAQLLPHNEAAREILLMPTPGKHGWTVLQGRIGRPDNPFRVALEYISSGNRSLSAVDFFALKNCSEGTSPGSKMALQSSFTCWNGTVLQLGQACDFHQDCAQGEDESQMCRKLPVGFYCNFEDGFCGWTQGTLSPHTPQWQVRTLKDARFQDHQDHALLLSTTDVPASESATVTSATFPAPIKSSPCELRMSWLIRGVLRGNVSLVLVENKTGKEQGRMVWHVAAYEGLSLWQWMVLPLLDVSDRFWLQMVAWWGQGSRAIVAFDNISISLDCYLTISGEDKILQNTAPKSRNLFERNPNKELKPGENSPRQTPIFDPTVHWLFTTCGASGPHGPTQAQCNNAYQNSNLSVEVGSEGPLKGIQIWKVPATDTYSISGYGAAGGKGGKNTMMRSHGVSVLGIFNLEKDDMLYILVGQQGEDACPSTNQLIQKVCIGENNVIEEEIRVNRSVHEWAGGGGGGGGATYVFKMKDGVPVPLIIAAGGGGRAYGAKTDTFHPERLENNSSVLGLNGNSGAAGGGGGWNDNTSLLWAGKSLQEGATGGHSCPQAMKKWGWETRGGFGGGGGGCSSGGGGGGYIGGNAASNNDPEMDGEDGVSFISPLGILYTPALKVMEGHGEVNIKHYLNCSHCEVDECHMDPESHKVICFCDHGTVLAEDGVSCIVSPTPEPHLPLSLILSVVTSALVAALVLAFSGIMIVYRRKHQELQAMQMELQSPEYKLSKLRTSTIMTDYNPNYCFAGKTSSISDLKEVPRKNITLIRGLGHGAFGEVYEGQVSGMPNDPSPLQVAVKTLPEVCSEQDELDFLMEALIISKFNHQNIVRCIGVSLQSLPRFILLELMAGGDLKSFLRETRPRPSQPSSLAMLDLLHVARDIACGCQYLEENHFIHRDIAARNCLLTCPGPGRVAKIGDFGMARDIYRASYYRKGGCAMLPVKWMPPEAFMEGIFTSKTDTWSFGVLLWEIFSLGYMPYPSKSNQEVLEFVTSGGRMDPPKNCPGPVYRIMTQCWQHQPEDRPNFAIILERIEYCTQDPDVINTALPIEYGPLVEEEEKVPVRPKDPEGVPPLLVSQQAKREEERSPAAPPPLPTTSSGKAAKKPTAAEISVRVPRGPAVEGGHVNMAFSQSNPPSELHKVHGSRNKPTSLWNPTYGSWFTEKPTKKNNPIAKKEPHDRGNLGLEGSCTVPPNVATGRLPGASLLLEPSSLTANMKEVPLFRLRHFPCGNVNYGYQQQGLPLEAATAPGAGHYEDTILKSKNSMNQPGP
T4 sequence (P45984 whole entry): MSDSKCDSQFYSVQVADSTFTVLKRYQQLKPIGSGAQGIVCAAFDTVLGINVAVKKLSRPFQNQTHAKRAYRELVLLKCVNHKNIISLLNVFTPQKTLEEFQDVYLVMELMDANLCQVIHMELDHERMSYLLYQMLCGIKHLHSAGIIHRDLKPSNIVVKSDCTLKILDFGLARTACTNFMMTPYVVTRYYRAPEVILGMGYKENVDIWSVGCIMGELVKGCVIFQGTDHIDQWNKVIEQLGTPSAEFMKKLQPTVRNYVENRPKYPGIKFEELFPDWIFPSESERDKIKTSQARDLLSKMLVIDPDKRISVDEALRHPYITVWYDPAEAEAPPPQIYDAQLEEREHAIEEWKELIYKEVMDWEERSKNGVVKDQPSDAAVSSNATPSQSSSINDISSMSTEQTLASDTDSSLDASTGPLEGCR

In the case of `O=C(Nc1cnn(-c2csc(C(=O)NC3COC3)c2)c1)Nc1ccccc1Cl` [Compound 17, 4-(4-(3-(2-chlorophenyl)ureido)-1H-pyrazol-1-yl)-N-(oxetan-3-yl)thiophene-2-carboxamide], the remaining activity at 5 µM was found to be 101% in assay [1]; 89.7% in assay [2]; 96.3% in assay [3]; 34.1% in assay [4]; 106% in assay [5] (setting [9]); 93.6% in assay [5] (setting [10]). Besides, the remaining activity at 5 µM in assay [5] (setting [11]) is 107%; in assay [5] (setting [12]), 99%; in assay [5] (setting [13]) it was 93.2%; in assay [6], 90%; in assay [7], 93.3%; in assay [8] it was 104%.
On to `O=C(Nc1cnn(-c2csc(C(=O)NC3COC3)c2)c1)Nc1c(F)cccc1Cl` [Compound 25, 4-(4-(3-(2-chloro-6-fluorophenyl)ureido)-1H-pyrazol-1-yl)-N-(oxetan-3-yl)thiophene-2-carboxamide], for which the remaining activity at 5 µM was determined as 89.2% in assay [1]; 99.2% in assay [2]; 99.7% in assay [3]; 22.7% in assay [4]; 94.2% in assay [5] (setting [9]); 93.8% in assay [5] (setting [10]). Further, the remaining activity at 5 µM in assay [5] (setting [11]) was found to be 98.9%; in assay [5] (setting [12]) it was 94.6%; in assay [5] (setting [13]), 94.1%; in assay [6], 95.5%; in assay [7] it was 80.1%; in assay [8], 58.5%.
For the molecule `Cc1sc(C(=O)NC2COC2)cc1-n1cc(NC(=O)Nc2c(F)cccc2Cl)cn1` [Compound 27, 4-(4-(3-(2-chloro-6-fluorophenyl)ureido)-1H-pyrazol-1-yl)-5-methyl-N-(oxetan-3-yl)thiophene-2-carboxamide], the remaining activity at 10 µM in assay [1] (10 uM) came to 100%; in assay [2] (10 uM), 69.1%; in assay [3] (10 uM), 96.1%; in assay [4] (10 uM), 51.9%; in assay [5] (setting [9]) it was 111%; in assay [5] (setting [10]) it was 98.3%. The remaining activity at 10 µM in assay [5] (setting [11]) came to 90.8%; in assay [5] (setting [12]), 106%; in assay [5] (setting [13]), 105%; in assay [6] (10 uM), 80.2%; in assay [7] (10 uM), 99.2%; in assay [8] (10 uM) it was 104%.

Source of the values: US20240246942A1, “KINASE INHIBITORS FOR THE TREATMENT OF NEURODEGENERATIVE DISEASES” (priority 2020, published 2024).
